Values after ≈ are worked out from the molar mass of the structure shown.
Legend:
Assay in all cases: Antibacterial assay (standard microtitration), MIC
Type in all cases: cell-based
[1] = test system: E. coli MC4100; conditions: Escherichia coli, MC4100; Gram Negative Bacteria; Table 1A; read-out: Minimum Inhibitory Concentrations, E. coli MC4100
Protocol: (§1) Test A—Antibacterial Assays
(§2) The compounds of the present invention were tested against an assortment of Gram-negative and Gram-positive organisms using standard microtitration techniques (Cohen et. al., Antimicrob., 1985;28:766; Heifetz, et. al., Antimicrob., 1974;6:124). The results of the evaluation are shown in Tables 1A and B. In the tables, “—” means no data.

[2] = test system: H. influenzae HI-3542; conditions: Haemophilus influenzae, HI3542; Gram Negative Bacteria; Table 1A; read-out: Minimum Inhibitory Concentrations, H. influenzae HI-3542
Protocol: as §1, §2

[3] = test system: M. catarrhalis BC-3531; conditions: Moraxella catarrhalis, BC3531; Gram Negative Bacteria; Table 1A; read-out: Minimum Inhibitory Concentrations, M. catarrhalis BC-3531
Protocol: as §1, §2

[4] = test system: E. faecalis MGH-2; conditions: Gram Positive Bacteria, Table 1B; for MIC: Enterococcus faecalis, MGH2, read-out: Minimum Inhibitory Concentrations, E. faecalis MGH-2
Protocol: as §1, §2

[5] = test system: S pyogenes C203; conditions: Gram Positive Bacteria, Table 1B; for MIC: read-out: Minimum Inhibitory Concentrations, S pyogenes C203
Protocol: as §1, §2

[6] = test system: S. aureus UC-76; conditions: Table 1B; for MIC: Staphylococcus aureus, UC76, Gram Positive Bacteria, read-out: Minimum Inhibitory Concentrations, S. aureus UC-76; for Minimum Inhibitory Concentrations, S. aureus UC-76: Gram Positive Bacteria
Protocol: as §1, §2

COc1c(N2CCC(O)C(O)C2)c(F)cc2c(=O)c(C(=O)O)cn(C3CC3)c12 (centres unmarked) [drawing 338]
MIC [1]: 0.25 µg/mL (≈ 0.637 µM)
MIC [2]: 0.008 µg/mL (≈ 0.0204 µM)
MIC [3]: 0.125 µg/mL (≈ 0.319 µM)

COc1c(N2CCCC(O)C2)c(F)cc2c(=O)c(C(=O)O)cn(C3CC3)c12 (centres unmarked) [drawing 339]
MIC [1]: 0.125 µg/mL (≈ 0.332 µM)
MIC [2]: 0.002 µg/mL (≈ 0.00531 µM)
MIC [3]: 0.03 µg/mL (≈ 0.0797 µM)

Cc1c(N2CCCC(O)C2)c(F)cc2c(=O)c(C(=O)O)cn(C3CC3)c12 (centres unmarked) [drawing 340]
MIC [1]: 0.125 µg/mL (≈ 0.347 µM)
MIC [2]: 0.015 µg/mL (≈ 0.0416 µM)
MIC [3]: 0.03 µg/mL (≈ 0.0832 µM)

Cc1c(N2CCCC(C)(O)C2)c(F)cc2c(=O)c(C(=O)O)cn(C3CC3)c12 (centres unmarked) [drawing 341]
MIC [1]: 0.5 µg/mL (≈ 1.34 µM)
MIC [2]: 0.06 µg/mL (≈ 0.16 µM)
MIC [3]: 0.125 µg/mL (≈ 0.334 µM)

COc1c(N2CCC3(CC2)OCCO3)c(F)cc2c(=O)c(C(=O)O)cn(C3CC3)c12 [drawing 343]
MIC [4]: 0.25 µg/mL (≈ 0.597 µM)
MIC [5]: 0.25 µg/mL (≈ 0.597 µM)
MIC [6]: 0.015 µg/mL (≈ 0.0358 µM)

Cc1c(N2CCC(CCO)CC2)c(F)cc2c(=O)c(C(=O)O)cn(C3CC3)c12 [drawing 345]
MIC [4]: 0.03 µg/mL (≈ 0.0772 µM)
MIC [5]: 0.06 µg/mL (≈ 0.154 µM)
MIC [6]: 0.004 µg/mL (≈ 0.0103 µM)

COc1c(N2CCC(C(O)CO)CC2)c(F)cc2c(=O)c(C(=O)O)cn(C3CC3)c12 (centres unmarked) [drawing 346]
MIC [4]: 0.25 µg/mL (≈ 0.595 µM)
MIC [5]: 0.25 µg/mL (≈ 0.595 µM)
MIC [6]: 0.015 µg/mL (≈ 0.0357 µM)

COc1c(N2CCC(O)(CO)CC2)c(F)cc2c(=O)c(C(=O)O)cn(C3CC3)c12 [drawing 347]
MIC [4]: 1 µg/mL (≈ 2.46 µM)
MIC [5]: 1 µg/mL (≈ 2.46 µM)
MIC [6]: 0.015 µg/mL (≈ 0.0369 µM)

COc1c(N2CCC(CO)CC2)c(F)cc2c(=O)c(C(=O)O)cn(C3CC3)c12 [drawing 348]
MIC [4]: 0.125 µg/mL (≈ 0.32 µM)
MIC [5]: 0.125 µg/mL (≈ 0.32 µM)
MIC [6]: 0.015 µg/mL (≈ 0.0384 µM)

Cc1c(N2CCC(O)C(C)(C)C2)c(F)cc2c(=O)c(C(=O)O)cn(C3CC3)c12 (centres unmarked) [drawing 349]
MIC [4]: 8 µg/mL (≈ 20.6 µM)
MIC [5]: 8 µg/mL (≈ 20.6 µM)
MIC [6]: 0.25 µg/mL (≈ 0.644 µM)

COc1c(N2CCC(O)C(C)(C)C2)c(F)cc2c(=O)c(C(=O)O)cn(C3CC3)c12 (centres unmarked) [drawing 350]
MIC [4]: 0.25 µg/mL (≈ 0.618 µM)
MIC [5]: 0.5 µg/mL (≈ 1.24 µM)
MIC [6]: 0.015 µg/mL (≈ 0.0371 µM)

COc1c(N2CCC(O)C(C)C2)c(F)cc2c(=O)c(C(=O)O)cn(C3CC3)c12 (centres unmarked) [drawing 351]
MIC [4]: 0.125 µg/mL (≈ 0.32 µM)
MIC [5]: 0.25 µg/mL (≈ 0.64 µM)
Minimum Inhibitory Concentrations, S. aureus UC-76 [6]: 0.008 µg/mL

COc1c(N2CCC(O)(c3ccccc3)CC2)c(F)cc2c(=O)c(C(=O)O)cn(C3CC3)c12 [drawing 352]
MIC [4]: 32 µg/mL (≈ 70.7 µM)
MIC [5]: 2 µg/mL (≈ 4.42 µM)
MIC [6]: 0.25 µg/mL (≈ 0.553 µM)

COc1c(N2CCCC(C(O)CO)C2)c(F)cc2c(=O)c(C(=O)O)cn(C3CC3)c12 (centres unmarked) [drawing 353]
MIC [4]: 8 µg/mL (≈ 19 µM)
MIC [5]: 2 µg/mL (≈ 4.76 µM)
MIC [6]: 1 µg/mL (≈ 2.38 µM)

COc1c(N2CCCC(CO)C2)c(F)cc2c(=O)c(C(=O)O)cn(C3CC3)c12 (centres unmarked) [drawing 354]
MIC [4]: 0.125 µg/mL (≈ 0.32 µM)
MIC [5]: 0.25 µg/mL (≈ 0.64 µM)
MIC [6]: 0.015 µg/mL (≈ 0.0384 µM)

COc1c(N2CCCC(O)(CO)C2)c(F)cc2c(=O)c(C(=O)O)cn(C3CC3)c12 (centres unmarked) [drawing 355]
MIC [4]: 1 µg/mL (≈ 2.46 µM)
MIC [5]: 2 µg/mL (≈ 4.92 µM)
MIC [6]: 0.06 µg/mL (≈ 0.148 µM)

COc1c(N2CCC(O)C(C)C2)c(F)cc2c(=O)c(C(=O)O)cn(C3CC3)c12 (centres unmarked) [drawing 356]
Minimum Inhibitory Concentrations, E. faecalis MGH-2 [4]: 0.125 µg/mL
Minimum Inhibitory Concentrations, S pyogenes C203 [5]: 0.25 µg/mL
Minimum Inhibitory Concentrations, S. aureus UC-76 [6]: 0.0008 µg/mL

COc1c(N2CCC(O)C(O)C2)c(F)cc2c(=O)c(C(=O)O)cn(C3CC3)c12 (centres unmarked) [drawing 357]
MIC [4]: 0.125 µg/mL (≈ 0.319 µM)
MIC [5]: 0.125 µg/mL (≈ 0.319 µM)
MIC [6]: 0.008 µg/mL (≈ 0.0204 µM)

COc1c(N2CCCC(O)C2)c(F)cc2c(=O)c(C(=O)O)cn(C3CC3)c12 (centres unmarked) [drawing 358]
MIC [4]: 0.002 µg/mL (≈ 0.00531 µM)
MIC [5]: 0.125 µg/mL (≈ 0.332 µM)
MIC [6]: 0.03 µg/mL (≈ 0.0797 µM)

Cc1c(N2CCCC(O)C2)c(F)cc2c(=O)c(C(=O)O)cn(C3CC3)c12 (centres unmarked) [drawing 359]
MIC [4]: 0.125 µg/mL (≈ 0.347 µM)
MIC [5]: 0.125 µg/mL (≈ 0.347 µM)
MIC [6]: 0.015 µg/mL (≈ 0.0416 µM)

Cc1c(N2CCCC(C)(O)C2)c(F)cc2c(=O)c(C(=O)O)cn(C3CC3)c12 (centres unmarked) [drawing 360]
MIC [4]: 0.5 µg/mL (≈ 1.34 µM)
MIC [5]: 0.03 µg/mL (≈ 0.0801 µM)

From US20050096278A1, “Antibacterial agents” (priority 2003, published 2005)
